From PubChem BioAssay AID493161 (The Scripps Research Institute Molecular Screening Center, 2011) come the findings set out here.

Calls of active or inactive are those of the source. How the calls were made is not given here.

The nature of the experiment: cytotoxicity of cultured cells, dose response, cytotoxicity control for LYPLA1/LYPLA2 dual inhibitor project, cell-based, absorbance, serum-free or FCS media (AID 493161). Conditions: absorbance cell survival.

With `CC(C)(O)c1cnn(C(=O)N2CCC(C(C)(C)C)CC2)n1`, the CC50 was over 9 µM (serum-free media) and > 27 µM (inactive) (with FCS).

As to `CC(C)(C)C1CCN(C(=O)n2ncc(C(O)(c3ccccc3)c3ccccc3)n2)CC1`, the CC50 was > 35 µM (inactive) (serum-free media) and > 50 µM (inactive) (with FCS).

For `CCC1CCCCN1C(=O)n1ncc(C(O)(c2ccccc2)c2ccccc2)n1` (stereo unspecified), the CC50 is > 50 µM (inactive) (serum-free media) and > 50 µM (inactive) (with FCS).
